Source: patent publication US20250270217A1, “IMIDAZ0[1,2-A]PYRIMIDINE-5(1 H)-ONES HAVING A COVALENT WARHEAD AT THE 3-POSITION AS WRN INHIBITORS” (Incyte Corporation, priority 2023, published 2025)

Columns and labels:
WRN [1] = molecular target: T1, WRN (Homo sapiens, UniProt Q14191); assay: WRN Helicase activity assay (fluorescence DNA unwinding); type: biochemical; details: 1-hr pre-incubation with enzyme; 100 μM ATP, 25 nM forked dsDNA, 1 nM WRN; geometric mean of at least 2 replicates
T1 construct: A His-tagged construct of WRN (AA S2-S1235) was produced and used for the ATPase assay; His; made in house; host or cells: Sf9 insect cells (baculovirus)
T1 sequence (Q14191 2-1235): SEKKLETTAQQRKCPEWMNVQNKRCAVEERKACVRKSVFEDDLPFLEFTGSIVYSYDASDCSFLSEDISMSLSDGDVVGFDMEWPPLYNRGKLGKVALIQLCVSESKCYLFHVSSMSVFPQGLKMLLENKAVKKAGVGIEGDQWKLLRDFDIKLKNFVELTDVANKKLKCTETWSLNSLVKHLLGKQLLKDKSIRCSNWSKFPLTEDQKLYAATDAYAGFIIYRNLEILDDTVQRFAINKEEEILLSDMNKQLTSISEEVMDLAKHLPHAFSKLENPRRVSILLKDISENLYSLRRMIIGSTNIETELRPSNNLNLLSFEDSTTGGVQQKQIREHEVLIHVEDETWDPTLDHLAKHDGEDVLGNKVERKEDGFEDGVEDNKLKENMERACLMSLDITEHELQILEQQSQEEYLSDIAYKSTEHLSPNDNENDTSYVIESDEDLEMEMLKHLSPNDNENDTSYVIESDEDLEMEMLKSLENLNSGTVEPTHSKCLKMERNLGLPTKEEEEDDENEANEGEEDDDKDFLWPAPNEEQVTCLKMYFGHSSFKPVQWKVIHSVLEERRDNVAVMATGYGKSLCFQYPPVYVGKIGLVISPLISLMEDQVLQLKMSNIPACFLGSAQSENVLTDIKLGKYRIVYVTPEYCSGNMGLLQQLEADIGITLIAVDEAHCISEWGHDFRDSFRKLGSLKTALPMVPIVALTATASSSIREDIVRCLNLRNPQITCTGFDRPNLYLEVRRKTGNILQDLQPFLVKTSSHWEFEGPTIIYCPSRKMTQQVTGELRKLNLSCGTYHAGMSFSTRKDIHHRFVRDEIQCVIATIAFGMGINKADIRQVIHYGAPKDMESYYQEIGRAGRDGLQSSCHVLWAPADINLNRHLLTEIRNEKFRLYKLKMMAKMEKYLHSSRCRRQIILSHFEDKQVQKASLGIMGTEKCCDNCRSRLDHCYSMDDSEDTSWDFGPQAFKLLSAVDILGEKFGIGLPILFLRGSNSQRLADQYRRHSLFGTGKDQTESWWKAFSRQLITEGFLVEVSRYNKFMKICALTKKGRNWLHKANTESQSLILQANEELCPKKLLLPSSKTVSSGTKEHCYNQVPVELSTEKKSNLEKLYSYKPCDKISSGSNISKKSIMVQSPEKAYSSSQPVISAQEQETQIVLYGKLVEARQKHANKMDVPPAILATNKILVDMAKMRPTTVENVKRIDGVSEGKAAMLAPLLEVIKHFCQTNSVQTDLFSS
Protocol: Compounds of the examples were tested for WRN helicase activity. DNA encoding the target protein, 6×HIS-TEV-WRN-517-945, was produced, cloned and transfected as detailed in Example D. To determine the inhibitory properties of the compounds, a 384 wells plate-based Helicase assay was set up to measure the extent of DNA unwinding (Helicase) activity of WRN. The WRN Helicase assay was designed to measure increase in fluorescence signal using a fluorescence based, donor-quencher paired forked dsDNA oligomer substrate (custom synthesis from Sigma-Aldrich) prepared by annealing equal amounts of oligo GPat-1 ([BHQ2][…]) and oligo GPat-2 ([…][TAM]). Continuous measurement of fluorescent signal was used to optimize the buffer conditions, concentration of enzyme (WRN), concentration of substrates (ATP & dsDNA), and the linearity of the Helicase reaction. All solutions were prepared in the following assay buffer: 50 mM Tris-HCl, pH-7.5, 2 mM MgCl2, 50 mM NaCl, 1 mM EGTA, 0.01% P-20, 0.05% BSA, and 2 mM DTT prepared with nuclease free water.
A serial dilution (1:3 scheme) of the compounds was prepared in neat DMSO and 100 nL of the compounds was dispensed in the Greiner black low volume (Greiner #784076) 384 wells assay plate. An 1-hr pre-incubation of the compounds with enzyme was included. A His-tagged construct of WRN (AA S2-S1235) was produced and used for the ATPase assay. Maximum inhibition control wells were set up with the addition of only assay buffer, and no inhibition control wells were set up with neat DMSO without test compounds. The reaction was initiated by addition of 5 μL substrate mix (200 μM ultrapure ATP, and 50 nM dsDNA prepared in assay buffer) and incubated at 25° C. for 35 min. A typical Helicase reaction consists of 25 nM forked dsDNA, 100 μM ATP, and 1 nM WRN prepared in assay buffer. The WRN Helicase reaction was quenched by the addition of 5 μL ‘STOP’ solution containing 100 mM EDTA (final EDTA concentration 33.33 mM) prepared in assay buffer. The plates were read on BMG PHERAstar FSX using 540/590 module to measure an increase of fluorescence. Data analysis was carried out using the Genedata software following % of control normalization. Fitting parameters include dose response IC50, Hill slope (n), maximum inhibition (S∞), and minimum inhibition (S0). The reported IC50 values for compounds in this invention are the geometric means of at least 2 independent replicates.

WRN [2] = molecular target: T1, WRN; assay: WRN ATPase activity assay (ADP-Glo); type: biochemical; details: 1-hr pre-incubation with enzyme; 100 μM ATP, 25 nM forked dsDNA, 1 nM WRN; geometric mean of at least 2 replicates
Protocol: Compounds of the Examples were tested for WRN ATPase activity. WRN ATPase activity catalyzes ATP hydrolysis to produce ADP and phosphate. DNA encoding the target protein, 6×HIS-TEV-WRN-517-945, was produced, cloned and transfected as detailed in Example D. The amount of ADP produced was measured using ADP-Glo™ Kinase Assay kit from Promega Corporation in a Greiner white regular volume 384 wells assay plate (Greiner #781075). Data was normalized to a standard curve generated using various ADP concentrations and the corresponding luminescent signal intensities at each concentration. The assay conditions were optimized for enzyme concentration (WRN), substrate concentrations (ATP & dsDNA), and the linearity of the ATPase reaction, in the following assay buffer: 50 mM Tris-HCl, pH-7.5, 2 mM MgCl2, 50 mM NaCl, 1 mM EGTA, 0.01% P-20, 0.05% BSA, and 2 mM DTT prepared with nuclease free water.
A serial dilution (1:3 scheme) of the compounds were prepared in neat DMSO, with 100 nL of the compounds dispensed in the 384 wells assay plate. An 1-hr pre-incubation of the compounds with enzyme was included. A His-tagged construct of WRN (AA S2-S1235) was produced and used for the ATPase assay. Maximum inhibition control wells were set up with the addition of only assay buffer, and no inhibition control wells were set up with neat DMSO without test compounds. The reaction was initiated by addition of 5 μL substrate mix (200 μM ultrapure ATP, and 50 nM dsDNA prepared in assay buffer) and incubated at 25° C. for 35 min. A forked dsDNA oligomer substrate was prepared by annealing equal amounts of oligo GPat-1 ([BHQ2][…]) and oligo GPat-2 ([…][TAM]) and was used as dsDNA substrate for WRN ATPase assay. A typical ATPase reaction consists of 25 nM forked dsDNA, 100 μM ATP, and 1 nM WRN prepared in assay buffer. The WRN ATPase reaction was stopped by the addition of 5 μL of ADP-Glo Reagent from ADP-Glo™ Kinase Assay kit and incubated for 40 min to deplete the unreacted ATP. Afterwards, 5 μL of Kinase Detection Reagent from the ADP-Glo™ Kinase Assay kit was added and incubated for 1 hr for the development of luminescence signal.
Luminesce signals were measured on BMG PHERAstar FSX using luminescence protocol. Data analysis was carried out using Genedata software following % of control normalization. Fitting parameters include dose response IC50, Hill slope (n), maximum inhibition (S∞), and minimum inhibition (S0). The reported IC50 values for compounds in this invention are the geometric means of at least 2 independent replicates.

Row | SMILES | IC50 (WRN [1]) [nM] | IC50 (WRN [2]) [nM]
1 | C=CC(=O)Nc1ccccc1-c1c(CC)nc2n(CC(=O)Nc3ccc(C(F)(F)F)cc3)c(C)c(-c3cnn(C)c3)n2c1=O [Example 16, N-(2-(7-Ethyl-2-methyl-3-(1-methyl-1H-pyrazol-4-yl)-5-oxo-1-(2-oxo-2-((4-(trifluoromethyl)phenyl)amino)ethyl)-1,5-dihydroimidazo[1,2-a]pyrimidin-6-yl)phenyl)acrylamide] | < 100 | < 100
2 | C=CC(=O)Nc1ccccc1-c1c(CC)nc2n(CC(=O)Nc3ccc(F)cc3)ccn2c1=O [Example 17, N-(2-(7-ethyl-1-(2-((4-fluorophenyl)amino)-2-oxoethyl)-5-oxo-1,5-dihydroimidazo[1,2-a]pyrimidin-6-yl)phenyl)acrylamide] | 100 to 500 | 100 to 500
3 | C=CC(=O)Nc1ccccc1-c1c(CC)nc2n(CC(=O)Nc3ccc(F)cc3)c(C)c(C)n2c1=O [Example 18, N-(2-(7-Ethyl-1-(2-((4-fluorophenyl)amino)-2-oxoethyl)-2,3-dimethyl-5-oxo-1,5-dihydroimidazo[1,2-a]pyrimidin-6-yl)phenyl)acrylamide] | < 100 | < 100
4 | C=CC(=O)Nc1ccccc1-c1c(C)nc2n(CC(=O)Nc3ccc(F)cc3)c(C)c(C)n2c1=O [Example 19, N-(2-(1-(2-((4-Fluorophenyl)amino)-2-oxoethyl)-2,3,7-trimethyl-5-oxo-1,5-dihydroimidazo[1,2-a]pyrimidin-6-yl)phenyl)acrylamide] | < 100 | < 100
5 | C=CC(=O)Nc1ccccc1-c1c(CC)nc2n(CC(=O)Nc3ccc(F)cc3Cl)c(C)c(C)n2c1=O [Example 20, N-(2-(1-(2-((2-Chloro-4-fluorophenyl)amino)-2-oxoethyl)-7-ethyl-2,3-dimethyl-5-oxo-1,5-dihydroimidazo[1,2-a]pyrimidin-6-yl)phenyl)acrylamide] | < 100 | < 100
6 | C=CC(=O)Nc1ccccc1-c1c(CC)nc2n(CC(=O)Nc3ccc(C(F)(F)F)cc3)c(C)c(C)n2c1=O [Example 21, N-(2-(7-Ethyl-2,3-dimethyl-5-oxo-1-(2-oxo-2-((4-(trifluoromethyl)phenyl)amino)ethyl)-1,5-dihydroimidazo[1,2-a]pyrimidin-6-yl)phenyl)acrylamide] | < 100 | < 100
7 | C=CC(=O)Nc1ccccc1-c1c(CC)nc2n(CC(=O)Nc3ccc(C(F)(F)F)cc3)c(-c3ccccc3)cn2c1=O [Example 22, N-(2-(7-Ethyl-5-oxo-1-(2-oxo-2-((4-(trifluoromethyl)phenyl)amino)ethyl)-2-phenyl-1,5-dihydroimidazo[1,2-a]pyrimidin-6-yl)phenyl)acrylamide] | 500 to 1000 | 1000 to 5000
8 | C=CC(=O)Nc1cc(C(=O)NC2CC2)ccc1-c1c(CC)nc2n(CC(=O)Nc3ccc(C(F)(F)F)cc3)c(C)c(C)n2c1=O [Example 23, 3-Acrylamido-N-cyclopropyl-4-(7-ethyl-2,3-dimethyl-5-oxo-1-(2-oxo-2-((4-(trifluoromethyl)phenyl)amino)ethyl)-1,5-dihydroimidazo[1,2-a]pyrimidin-6-yl)benzamide] | < 100 | < 100
9 | C=CC(=O)Nc1cc(C(=O)NC2CC2)ccc1-c1c(CC)nc2n(CC(=O)Nc3ccc(F)cc3)c(C)c(C)n2c1=O [Example 24, 3-Acrylamido-N-cyclopropyl-4-(7-ethyl-1-(2-((4-fluorophenyl)amino)-2-oxoethyl)-2,3-dimethyl-5-oxo-1,5-dihydroimidazo[1,2-a]pyrimidin-6-yl)benzamide] | < 100 | < 100
10 | C=CC(=O)Nc1cc(C(=O)NC2CC2)ccc1-c1c(CC)nc2n(CC(=O)Nc3ccc(F)cc3Cl)c(C)c(C)n2c1=O [Example 25, 3-Acrylamido-4-(1-(2-((2-chloro-4-fluorophenyl)amino)-2-oxoethyl)-7-ethyl-2,3-dimethyl-5-oxo-1,5-dihydroimidazo[1,2-a]pyrimidin-6-yl)-N-cyclopropylbenzamide] | < 100 | < 100
11 | C=CC(=O)Nc1cc(C(=O)NC2CC2)ccc1-c1c(CC)nc2n(CC(=O)Nc3ccc(C(F)(F)F)cc3Cl)c(C)c(C)n2c1=O [Example 26, 3-Acrylamido-4-(1-(2-((2-chloro-4-(trifluoromethyl)phenyl)amino)-2-oxoethyl)-7-ethyl-2,3-dimethyl-5-oxo-1,5-dihydroimidazo[1,2-a]pyrimidin-6-yl)-N-cyclopropylbenzamide] | < 100 | < 100
12 | C=CC(=O)Nc1cc(C(=O)NCC)ccc1-c1c(CC)nc2n(CC(=O)Nc3ccc(C(F)(F)F)cc3)c(C)c(C)n2c1=O [Example 27, 3-Acrylamido-N-ethyl-4-(7-ethyl-2,3-dimethyl-5-oxo-1-(2-oxo-2-((4-(trifluoromethyl)phenyl)amino)ethyl)-1,5-dihydroimidazo[1,2-a]pyrimidin-6-yl)benzamide] | < 100 | < 100
13 | C=CC(=O)Nc1cc(C(=O)NC(C)C)ccc1-c1c(CC)nc2n(CC(=O)Nc3ccc(C(F)(F)F)cc3)c(C)c(C)n2c1=O [Example 28, 3-Acrylamido-4-(7-ethyl-2,3-dimethyl-5-oxo-1-(2-oxo-2-((4-(trifluoromethyl)phenyl)amino)ethyl)-1,5-dihydroimidazo[1,2-a]pyrimidin-6-yl)-N-isopropylbenzamide] | < 100 | < 100
14 | C=CC(=O)Nc1cc(C(=O)NC2CCC2)ccc1-c1c(CC)nc2n(CC(=O)Nc3ccc(C(F)(F)F)cc3)c(C)c(C)n2c1=O [Example 29, 3-Acrylamido-N-cyclobutyl-4-(7-ethyl-2,3-dimethyl-5-oxo-1-(2-oxo-2-((4-(trifluoromethyl)phenyl)amino)ethyl)-1,5-dihydroimidazo[1,2-a]pyrimidin-6-yl)benzamide] | < 100 | < 100
15 | C=CC(=O)Nc1cc(C(=O)NCC(F)F)ccc1-c1c(CC)nc2n(CC(=O)Nc3ccc(C(F)(F)F)cc3)c(C)c(C)n2c1=O [Example 30, 3-Acrylamido-N-(2,2-difluoroethyl)-4-(7-ethyl-2,3-dimethyl-5-oxo-1-(2-oxo-2-((4-(trifluoromethyl)phenyl)amino)ethyl)-1,5-dihydroimidazo[1,2-a]pyrimidin-6-yl)benzamide] | < 100 | < 100
16 | C=CC(=O)Nc1cc(C(=O)NCCOC)ccc1-c1c(CC)nc2n(CC(=O)Nc3ccc(C(F)(F)F)cc3)c(C)c(C)n2c1=O [Example 31, 3-Acrylamido-4-(7-ethyl-2,3-dimethyl-5-oxo-1-(2-oxo-2-((4-(trifluoromethyl)phenyl)amino)ethyl)-1,5-dihydroimidazo[1,2-a]pyrimidin-6-yl)-N-(2-methoxyethyl)benzamide] | < 100 | < 100
